Residue numbers refer to the chain shown, from its start.
Columns and labels:
[1] = target: T1, Muscarinic acetylcholine receptor M1 (Homo sapiens, UniProt P11229); test: Affinity towards human M1 receptor expressed in CHO cells using [3H]QNB as radioligand; format: cell-based
T1 sequence (P11229 whole entry): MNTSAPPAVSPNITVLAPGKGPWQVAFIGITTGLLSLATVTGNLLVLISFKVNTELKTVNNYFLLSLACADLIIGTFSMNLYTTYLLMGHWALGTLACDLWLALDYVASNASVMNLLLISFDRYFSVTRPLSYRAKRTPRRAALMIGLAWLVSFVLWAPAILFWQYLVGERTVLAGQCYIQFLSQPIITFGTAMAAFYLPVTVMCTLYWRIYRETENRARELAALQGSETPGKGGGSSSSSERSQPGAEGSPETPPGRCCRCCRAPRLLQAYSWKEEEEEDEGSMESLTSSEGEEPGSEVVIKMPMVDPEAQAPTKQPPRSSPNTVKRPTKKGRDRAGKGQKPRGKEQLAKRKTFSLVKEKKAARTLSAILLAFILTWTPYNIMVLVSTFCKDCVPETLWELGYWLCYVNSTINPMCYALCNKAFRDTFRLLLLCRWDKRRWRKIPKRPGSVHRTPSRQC

[2] = target: T2, Muscarinic acetylcholine receptor M1 (Homo sapiens) (UniProt P11229); test: Efficacy expressed as PI (percentage of carbachol) against human M1 receptor expressed in CHO cells; format: functional, cell-based
T2 sequence (whole entry): T1 sequence (P11229 whole entry)

[3] = target: T2, Muscarinic acetylcholine receptor M1 (Homo sapiens)
Description: Effective dose against affinity towards human muscarinic M1 receptor

[4] = target: T3, Muscarinic acetylcholine receptor M2 (Homo sapiens, UniProt P08172); test: Binding affinity towards human muscarinic M2 receptor
T3 sequence (P08172 whole entry): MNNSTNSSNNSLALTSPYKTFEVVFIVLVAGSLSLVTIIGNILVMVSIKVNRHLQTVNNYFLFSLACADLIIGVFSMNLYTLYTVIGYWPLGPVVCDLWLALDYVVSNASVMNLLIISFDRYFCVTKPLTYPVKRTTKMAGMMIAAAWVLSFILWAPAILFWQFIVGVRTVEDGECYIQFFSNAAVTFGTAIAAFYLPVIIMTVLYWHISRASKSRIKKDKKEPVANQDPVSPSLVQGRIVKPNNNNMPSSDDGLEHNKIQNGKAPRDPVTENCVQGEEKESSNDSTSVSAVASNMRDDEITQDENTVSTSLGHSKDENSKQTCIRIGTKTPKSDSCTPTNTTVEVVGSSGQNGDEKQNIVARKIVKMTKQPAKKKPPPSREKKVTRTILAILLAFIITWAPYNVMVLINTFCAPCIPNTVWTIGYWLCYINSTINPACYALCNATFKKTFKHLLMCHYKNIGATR

[5] = target: T4, Muscarinic acetylcholine receptor M2 (Homo sapiens) (UniProt P08172); test: Effective dose against affinity towards human muscarinic M2 receptor; format: functional
T4 sequence (whole entry): T3 sequence (P08172 whole entry)

[6] = Compound was evaluated in vivo for lethal dose in rats; format: ADME, organism-based; conditions: rat
[7] = organism: Rattus norvegicus; test: Compound was evaluated for minimum effective dose in the rat radial arm maze model; format: functional; conditions: read-out: MED
[8] = Compound was evaluated for half-life in human liver microsomes; format: ADME, Microsome
[9] = target: T1, Muscarinic acetylcholine receptor M1; test: In vitro functional agonism against M1 muscarinic receptor (PI)
[10] = test system: Monkey; test: In vivo cognitive assessment after oral administration of WAY-132983 in primates (Rhesus and cynomolgus monkeys) using pre-trained aged subjects (long delay); format: functional; conditions: Cercopithecidae, read-out: MED
[11] = target: T5, Muscarinic acetylcholine receptor M1 (Rattus norvegicus, UniProt P08482); test: Binding affinity against M1 receptor was determined by displacing [3H]OXO-M in rat cortical homogenate
T5 sequence (P08482 whole entry): T1 sequence (P11229 whole entry) with A5V, T254S, P309S, R320K, A337G, I413V

[12] = target: T3, Muscarinic acetylcholine receptor M2; test: In vitro functional agonism against M2 muscarinic receptor (cAMP)
[13] = test system: Monkey; test: In vivo cognitive assessment after oral administration of WAY-132983 in primates (Rhesus and cynomolgus monkeys) using pre-trained aged subjects (short delay); format: functional; conditions: Cercopithecidae, read-out: MED
[14] = test system: Rattus norvegicus; test: Compound was evaluated in vivo for cognitive impairment reduction in AF64-impaired RAM, rat administered subcutaneously; format: functional; conditions: sc, read-out: MED
[15] = target: T6, Muscarinic acetylcholine receptor M3 (Homo sapiens, UniProt P20309); test: Binding affinity towards human muscarinic M3 receptor
T6 sequence (P20309 whole entry): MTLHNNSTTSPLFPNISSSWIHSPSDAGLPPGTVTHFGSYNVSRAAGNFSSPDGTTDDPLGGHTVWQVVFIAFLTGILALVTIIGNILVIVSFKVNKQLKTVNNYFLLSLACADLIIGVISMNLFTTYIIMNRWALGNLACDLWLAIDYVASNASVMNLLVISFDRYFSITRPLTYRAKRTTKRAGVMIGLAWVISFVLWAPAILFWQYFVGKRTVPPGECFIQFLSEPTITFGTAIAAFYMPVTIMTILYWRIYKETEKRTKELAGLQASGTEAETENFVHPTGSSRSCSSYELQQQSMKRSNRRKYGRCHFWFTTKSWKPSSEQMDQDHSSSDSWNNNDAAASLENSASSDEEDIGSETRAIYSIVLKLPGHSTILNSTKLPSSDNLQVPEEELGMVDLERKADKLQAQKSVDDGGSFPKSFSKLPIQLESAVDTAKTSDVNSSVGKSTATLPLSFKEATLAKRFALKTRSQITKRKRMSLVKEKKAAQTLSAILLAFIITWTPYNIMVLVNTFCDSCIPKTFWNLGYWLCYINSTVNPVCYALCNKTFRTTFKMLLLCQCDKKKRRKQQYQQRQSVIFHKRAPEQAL

[16] = target: T6, Muscarinic acetylcholine receptor M3; test: In vitro functional agonism against M3 muscarinic receptor (PI)

Row | SMILES | Ki [1] | PI [2] | other results
1 | CCCCCCSc1nccnc1OC1CN2CCC1C2 (stereo in doubt; 4) [listing 1 of 2 here] | 7 nM | – | –
2 | CCCCCCOc1nccnc1SC1CN2CCC1C2 (stereo not given) | – | 42% | –
3 | c1cnc(O[C@@H]2CN3CCC2C3)cn1 (stereo in doubt; 2) [listing 1 of 2 here] | 2500 nM | – | –
4 | CCCCCCSc1nccnc1SC1CN2CCC1C2 (stereo not given) | – | 62% | –
5 | CCCCCCOc1nccnc1OC1CN2CCC1C2 (stereo not given) | – | 88% | ED50 [3]: 1.4 nM; Ki [4]: 20 nM; ED50 [5]: 600 nM
6 | c1cnc(O[C@@H]2CN3CCC2C3)cn1 (stereo in doubt; 1) [listing 1 of 2 here] | 5600 nM | – | Ki [4]: 40 nM; LD50 [6]: 30 mg/kg
7 | CCCCCCSc1nccnc1O[C@@H]1CN2CCC1C2 (stereo not given in full) | 75 nM | 107% | –
8 | CCCCCCSc1nccnc1O[C@H]1CN2CCC1C2 (stereo not given in full) | 124 nM | – | –
9 | CCCCCCSc1cncc(OC2CN3CCC2C3)n1 (stereo not given) | 22 nM | 2% | –
10 | CNC(=O)O[C@@H]1CN2CCC1C2 (stereo not given in full) | 26000 nM | 100% | minimal effective dose [7]: 1 mg/kg
11 | CCCCCCSc1nccnc1O[C@H]1CN2CCC1C2.Cl (stereo not given in full) | 2 nM | – | half-life [8]: 1.88 h; EC50 [9]: 1.1 nM; minimal effective dose [10]: 0.01 mg/kg; Ki [11]: 0.4 nM; EC50 [12]: 8 nM; Ki [4]: 3.4 nM; minimal effective dose [13]: 0.03 mg/kg; minimal effective dose [14]: 0.03 mg/kg; Ki [15]: 5.9 nM; EC50 [16]: 3.7 nM
12 | c1cnc(O[C@@H]2CN3CCC2C3)cn1 (stereo in doubt; 2) [listing 2 of 2 here] | – | 83% | –
13 | CCCCCCOc1nccnc1O[C@@H]1CN2CCC1C2 (stereo in doubt; 12) [listing 1 of 2 here] | – | 9% | –
14 | CCCCCCOc1nccnc1O[C@@H]1CN2CCC1C2 (stereo in doubt; 12) [listing 2 of 2 here] | 465 nM | – | –
15 | CCCCCCOc1nccnc1O[C@@H]1CN2CCC1C2 (stereo in doubt; 6) | 14 nM | – | –
16 | CCCCCCSc1nccnc1OC1CN2CCC1C2 (stereo in doubt; 8) | – | 104% | –
17 | CCCCCCOc1nsnc1C1=CCCN(C)C1 | – | 79% | –
18 | c1cnc(O[C@@H]2CN3CCC2C3)cn1 (stereo in doubt; 1) [listing 2 of 2 here] | – | 96% | –
19 | CCCCCCOc1nccnc1O[C@H]1CN2CCC1C2 (stereo not given in full) | 690 nM | 56% | –
20 | CCCCCCSc1nccnc1OC1CN2CCC1C2 (stereo in doubt; 4) [listing 2 of 2 here] | – | 85% | –

Reference: ChEMBL document CHEMBL1131780 (Bioorg Med Chem Lett, 1999)
